# Assay results from PubChem BioAssay (NCI).
#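 Step 1: Grow cells in 96-well plates. Step 2: Expose to compound for 48 hours at 5 concentrations. Step 3: Interpolate endpoints linearly; if unreached, use highest concentration. GI50 = concentration required for 50% inhibition of growth. TGI denotes the concentration required for complete inhibition of growth.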
# Key:
# Assay in all cases: DTP human tumour cell line panel, 48 h
# EKVX NSCLC = system: EKVX NSCLC
# M14 melanoma = system: M14 melanoma
# OVCAR-5 ovarian = system: OVCAR-5 ovarian
# SF-539 CNS = system: SF-539 CNS
# SNB-75 CNS = system: SNB-75 CNS
# SW-620 colon = system: SW-620 colon
# UO-31 renal = system: UO-31 renal
# A549 NSCLC = system: A549 NSCLC
# LOX IMVI melanoma = system: LOX IMVI melanoma
# T-47D breast = system: T-47D breast
Structure (SMILES),TGI (EKVX NSCLC) [µM],TGI (M14 melanoma) [µM],TGI (OVCAR-5 ovarian) [µM],TGI (SF-539 CNS) [µM],TGI (SNB-75 CNS) [µM],TGI (SW-620 colon) [µM],TGI (UO-31 renal) [µM],TGI (A549 NSCLC) [µM],TGI (LOX IMVI melanoma) [µM],GI50 (A549 NSCLC) [µM],GI50 (EKVX NSCLC) [µM],GI50 (LOX IMVI melanoma) [µM],GI50 (M14 melanoma) [µM],GI50 (OVCAR-5 ovarian) [µM],GI50 (SF-539 CNS) [µM],GI50 (SNB-75 CNS) [µM],GI50 (SW-620 colon) [µM],GI50 (UO-31 renal) [µM],TGI (T-47D breast) [µM],GI50 (T-47D breast) [µM]
Clc1ccccc1C1N2CCCCC2[C@@H]2c3[nH]c4ccccc4c3CCN12 (some centres undefined),> 100,31.3,52.7,30.9,66.7,31,39,,,,,,,,,,,,,
CCCCCCCCCCCCC/C=C1\C[C@H](O)COC1=O,32,28.3,33.5,35.8,30.7,28.8,32.6,38.7,,,,,,,,,,,,
c1ccc(CCCC2Sc3cccc4cccc(c34)S2)cc1,> 100,> 100,> 100,> 100,> 100,> 100,> 100,> 100,> 100,,,,,,,,,,,
COc1cc(CNc2nc3cc(N)cc(N)c3nc2-c2ccccc2)cc(OC)c1OC,8.31,18.2,> 50,8.01,14.6,4.51,> 50,33.1,10.4,4.28,1.94,3.19,9.52,21.5,1.34,0.813,1.54,11.1,,
N.N.N.N.N.N#N.[Cl-].[Os+7],> 100,> 100,> 100,> 100,> 100,> 100,> 100,> 100,> 100,> 100,> 100,> 100,> 100,> 100,> 100,> 100,> 100,> 100,,
C/C(=C1/N=C(c2ccccc2)OC1=O)c1ccc(C)cc1,> 100,> 100,> 100,> 100,,> 100,,> 100,> 100,,,,,,,,,,> 100,
CCOC(=O)C12CCSC1C1(C#N)C(C#N)=CC2(N=P(c2ccccc2)(c2ccccc2)c2ccccc2)n2c(=O)n(-c3ccccc3)c(=O)n21 (centres undefined),> 100,> 100,> 100,> 100,> 100,> 100,77.2,> 100,> 100,,,,,,,,,,,
Cc1cccc(Cl)c1NC(N)=S,> 100,> 100,> 100,> 100,> 100,35.6,> 100,> 100,,,,,,,,,,,,
Cc1ccc(/C=N/NS(=O)(=O)c2ccccc2)cc1,> 100,> 100,> 100,> 100,> 100,> 100,> 100,> 100,> 100,,,,,,,,,,,
CCOc1ccccc1NC(=O)C(=O)C(C(=O)c1ccc2ccccc2c1)C1OC(=O)c2ccccc21 (centres undefined),77.3,36.4,46.1,24.8,31,33.8,29.1,98.2,29.1,,,,,,,,,,,
NC1=NN(c2ccccc2)C(=O)C1/C(=N\NC(=O)c1cc2ccccc2cc1O)C(=O)Nc1nc([N+](=O)[O-])cs1 (centres undefined),> 100,> 95.5,> 100,59.6,> 100,> 82.3,30.3,> 100,55.4,,,,,,,,,,,
CC(C)(C)CC(C)(C)N(CSc1ccc(Cl)cc1)CSc1ccc(Cl)cc1,,5.91,6.26,2.56,5.68,4.93,1.93,7.7,1.06,0.452,,0.337,1.92,2.19,1.23,1.13,2.02,0.489,,
CCOC(=O)/C(=C/c1ccccc1)C(=O)c1ccccc1,,15.5,16.9,7.8,14.5,7.6,3.55,19.9,3.82,4.4,,1.8,3.77,4.05,2.63,2.95,2.77,1.76,32.5,6.17
CC1(C(=O)NCCN(CCNC(=O)C2(C)CC3(C)CC(C)(C2)C(=O)NC3=O)CCNC(=O)C2(C)CC3(C)CC(C)(C2)C(=O)NC3=O)CC2(C)CC(C)(C1)C(=O)NC2=O (centres undefined),> 100,> 100,,> 100,> 100,> 100,> 100,> 100,,,,,,,,,,,,
C/C=C/C(=O)[C@@H](O)C(C)C,> 100,,> 100,,> 100,> 100,> 100,> 100,,,,,,,,,,,,
COc1ccc(C(=O)Nc2ccc(S(=O)(=O)NCC(=O)O)cc2)cc1,> 100,> 100,> 100,> 100,> 100,> 100,> 100,> 100,> 100,,,,,,,,,,,
O=C(O)c1c([N+](=O)[O-])cc(C(F)(F)F)cc1[N+](=O)[O-],> 100,> 100,> 100,> 100,,> 100,> 100,> 100,> 100,,,,,,,,,,,
Cc1cc(C(=O)N[C@@H](CCC(=O)O)C(=O)O)sc1CC[C@@H]1CNc2nc(N)[nH]c(=O)c2C1,,> 100,> 100,> 100,> 100,> 100,> 100,> 100,> 100,0.0436,,0.0268,< 0.0124,0.026,< 0.01,0.252,0.0101,< 0.01,> 100,0.0825
O=C(N[C@@H]1C=CCC[C@@H]1c1ccccc1)OCc1ccccc1,72.5,34.5,54.4,33.5,60.6,50.7,36.7,> 69.6,28.9,,,,,,,,,,,
CSc1c(S(C)=O)[nH]c2cc(Br)cc(Br)c12 (centres undefined),59.7,61.5,,47.5,50.9,> 100,48.7,78.9,31.9,,,,,,,,,,,

Structure (SMILES),TGI (EKVX NSCLC) [µM],TGI (M14 melanoma) [µM],TGI (OVCAR-5 ovarian) [µM],TGI (SF-539 CNS) [µM],TGI (SNB-75 CNS) [µM],TGI (SW-620 colon) [µM],TGI (UO-31 renal) [µM],TGI (A549 NSCLC) [µM],TGI (LOX IMVI melanoma) [µM],GI50 (A549 NSCLC) [µM],GI50 (EKVX NSCLC) [µM],GI50 (LOX IMVI melanoma) [µM],GI50 (M14 melanoma) [µM],GI50 (OVCAR-5 ovarian) [µM],GI50 (SF-539 CNS) [µM],GI50 (SNB-75 CNS) [µM],GI50 (SW-620 colon) [µM],GI50 (UO-31 renal) [µM],TGI (T-47D breast) [µM],GI50 (T-47D breast) [µM]
CN1C(=O)N(C)C2C1NN=c1s/c(=C\c3c[nH]c4ccccc34)c(=O)n12 (centres undefined),> 100,> 100,> 100,55.9,,> 100,,> 100,> 100,0.109,0.0577,0.0518,0.0294,0.0731,0.0301,< 0.0158,0.0442,,,
Cc1cc(Nc2cc(CN3CCOCC3)c3nc(C)c(Cc4ccc(Cl)cc4F)n3n2)n[nH]1,,14.2,7.03,3.26,2.4,14.3,2.97,6.16,2.69,0.919,,1.11,1.83,1.8,1.36,0.433,1.07,1.41,16.2,1.23
O=c1c2cc(Br)ccc2nc(-c2ccccc2)n1NCC1(O)OCC(O)C(O)C1O (centres undefined),> 100,> 100,> 100,> 100,> 100,> 100,> 100,> 100,> 100,,,,,,,,,,,
COc1cc(-c2cc(-c3nc4cc(Cl)c(Cl)cc4[nH]3)[nH]n2)cc(OC)c1OC,,13.3,21.6,13.4,14.2,19.1,8.48,10.5,,2.87,,,3.57,7.08,3.28,3.12,4.47,2.47,5,1.87
CN(C)CCNC(=O)c1cccc2ccc(-c3cccnc3)nc12,19.8,20.7,22.4,23.7,23.7,27.5,9.71,32.3,15.1,,,,,,,,,,,
COc1ccc(C2=CC(c3ccc(Oc4ccnc5cc(Cl)ccc45)c(OC)c3)c3c(nc(OC)[nH]c3=O)N2)cc1 (centres undefined),,> 100,> 100,> 100,> 100,> 100,> 100,> 100,67.2,5.66,,4.04,88.4,24.6,20.7,9.44,4.34,5.97,> 100,6.83
O=C(c1ccccn1)c1nc(-c2ccc(Cl)c(Cl)c2)nc2ccc(Cl)cc12,> 100,> 100,> 100,56.4,35,> 100,> 100,> 100,,,,,,,,,,,,
CCCCNC(=O)OCC(COc1ccccc1OC)OC(=O)NCCCC (centres undefined),> 100,> 100,,> 100,> 100,> 100,> 100,> 100,> 100,,,,,,,,,,,
COc1ccc(OC)c(/C=C/C(=O)C(C)(C)C)c1,43.9,30.2,,38.4,56.8,38.6,,82.1,40.6,,,,,,,,,,,
CC(C)[C@H]1CO[C@@H]2O[C@H](C)CC(=O)N21,> 100,> 100,,> 100,> 100,> 100,> 100,> 100,,,,,,,,,,,,
O=C1NC2(CCCC2)/C(=N\O)C12CCCC2,> 100,> 100,> 100,> 100,> 100,> 100,> 100,> 100,> 100,,,,,,,,,,,
COc1cc(-c2nc(-c3nnc(-c4ccc(F)c(Cl)c4)o3)c3ccccn23)cc(OC)c1OC,> 100,> 100,> 100,,3.46,> 100,7.64,,> 100,,4.19,3.83,3.27,4.57,,1.3,3.05,2.2,,
C=CC1(c2ccccc2Cl)N/C(=C/OCC)CO1 (centres undefined),> 100,> 100,> 100,> 100,> 100,28.4,> 100,> 100,55.3,,,,,,,,,,,
CCOC(=O)C1(Br)C(c2ccccc2)NC(=O)N(C2OC(COC(=O)c3ccccc3)C(OC(=O)c3ccccc3)C2OC(=O)c2ccccc2)C1(C)Br (centres undefined),> 94.5,> 63.6,,> 100,> 90.7,22.4,> 94.8,> 100,> 100,,,,,,,,,,,
CN(C)c1ccc(/C=C/c2ccnc3ccc4ccccc4c23)cc1,,> 100,,> 100,70.4,> 100,> 100,> 100,> 100,,,,,,,,,,> 100,
NC(=S)N/N=C1\C(=O)N(CCc2ccccc2)C(=O)C1C(=O)NCCc1ccccc1 (centres undefined),> 100,> 100,> 100,> 100,> 100,> 100,> 100,,> 100,,,,,,,,,,,
NCCn1ccc(NC(c2ccccc2)(c2ccccc2)c2ccccc2)nc1=O,59.9,,> 100,31.3,33.9,35.9,> 100,75.7,30.5,,,,,,,,,,,
COc1cc(OC)cc(-c2ccc(-c3ccc(C(=N)N)s3)s2)c1,,2.74,3.19,3.45,2.5,1.02,3.31,3.37,0.495,1.63,,0.221,1.1,1.5,1.24,1.22,0.291,1.51,3.15,1.36
Cc1cc(S(N)(=O)=O)c(S/C(=N\Nc2ccc([N+](=O)[O-])cc2)c2ccc(O)cc2)cc1Cl,22.6,7.15,4.71,8.74,,11.6,23,29.6,,4.06,6.82,,2.61,2.09,3.39,,3.54,5.66,6.64,2.54
